Assay results published in PubChem BioAssay AID2060512 (Molecular Pharmacology Branch, DTP, NCI, 2025).
pIC50: −log10 of the molar value.

System: 186277-243-T-J2-PDC complex spheroid viability
Assay: Anticancer human tumor 186277-243-T-J2-PDC patient-derived colon adenocarcinoma cell line growth inhibition [GQUAD]
Conditions: for pIC50: curve of first compound; for viability, T/C: stronger effect = lower value
Outline: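 Multi-cell-type spheroids of tumor cells with HUVEC and mesenchymal stem cells, treated with drug combinations. Concentrations descend in half-log steps from near clinical Cmax, or from 10 microM where Cmax is unknown; viability read-out.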

[1] = second compound 0.0316 µM, first compound 0.0316 µM
[2] = second compound 0.0316 µM, first compound 0.1 µM
[3] = second compound 0.0316 µM, first compound 0.316 µM
[4] = second compound 0.0316 µM, first compound 1 µM
[5] = second compound 0.0316 µM, first compound 3.16 µM
[6] = second compound 0.0316 µM, first compound 10 µM
[7] = second compound 0.1 µM, first compound 0.0316 µM
[8] = second compound 0.1 µM, first compound 0.1 µM
[9] = second compound 0.1 µM, first compound 0.316 µM
[10] = second compound 0.1 µM, first compound 1 µM
[11] = second compound 0.1 µM, first compound 3.16 µM
[12] = second compound 0.1 µM, first compound 10 µM
[13] = second compound 0.316 µM, first compound 0.0316 µM
[14] = second compound 0.316 µM, first compound 0.1 µM
[15] = second compound 0.316 µM, first compound 0.316 µM
[16] = second compound 0.316 µM, first compound 1 µM
[17] = second compound 0.316 µM, first compound 3.16 µM
[18] = second compound 0.316 µM, first compound 10 µM
[19] = second compound 1 µM, first compound 0.0316 µM
[20] = second compound 1 µM, first compound 0.1 µM
[21] = second compound 1 µM, first compound 0.316 µM
[22] = second compound 1 µM, first compound 1 µM
[23] = second compound 1 µM, first compound 3.16 µM
[24] = second compound 1 µM, first compound 10 µM
[25] = second compound 3.16 µM, first compound 0.0316 µM
[26] = second compound 3.16 µM, first compound 0.1 µM
[27] = second compound 3.16 µM, first compound 0.316 µM
[28] = second compound 3.16 µM, first compound 1 µM
[29] = second compound 3.16 µM, first compound 3.16 µM
[30] = second compound 3.16 µM, first compound 10 µM
[31] = second compound 10 µM, first compound 0.0316 µM
[32] = second compound 10 µM, first compound 0.1 µM
[33] = second compound 10 µM, first compound 0.316 µM
[34] = second compound 10 µM, first compound 1 µM
[35] = second compound 10 µM, first compound 3.16 µM
[36] = second compound 10 µM, first compound 10 µM
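Further: spheroids exposed to drugs for 7 days.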
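Wherever viability, T/C is given: 100% = DMSO vehicle control viability.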

**Q.** Which results are given for `COc1ccc([C@@H](O)c2cc(-c3ncnc4cc(N5CCOCC5)ccc34)c(F)cc2Cl)nn1` + Cc1cnc(CNC(=O)c2c(=O)c3ccc(N4CCCN(C)CC4)nc3n3c2sc2ccccc23)cn1?
**A.** pIC50 (second compound 0.0316 µM): 5.73; pIC50 (second compound 0.1 µM): 5.86; pIC50 (second compound 0.316 µM): 6.15; pIC50 (second compound 1 µM): 6.40; pIC50 (second compound 3.16 µM): 6.89; pIC50 (second compound 10 µM): > 7.50; viability, T/C [1]: 94.7%; viability, T/C [2]: 100%; viability, T/C [3]: 97.5%; viability, T/C [4]: 59%; viability, T/C [5]: 42.5%; viability, T/C [6]: 17.5%; viability, T/C [7]: 86.7%; viability, T/C [8]: 81.3%; viability, T/C [9]: 69.9%; viability, T/C [10]: 56.6%; viability, T/C [11]: 34.8%; viability, T/C [12]: 14.3%; viability, T/C [13]: 72.3%; viability, T/C [14]: 67%; viability, T/C [15]: 60.4%; viability, T/C [16]: 42.8%; viability, T/C [17]: 32.3%; viability, T/C [18]: 7.31%; viability, T/C [19]: 55.5%; viability, T/C [20]: 61.1%; viability, T/C [21]: 55.8%; viability, T/C [22]: 34.9%; viability, T/C [23]: 23.5%; viability, T/C [24]: 6.14%; viability, T/C [25]: 57.2%; viability, T/C [26]: 49.1%; viability, T/C [27]: 45.6%; viability, T/C [28]: 34.2%; viability, T/C [29]: 26.6%; viability, T/C [30]: 5.25%; viability, T/C [31]: 46.4%; viability, T/C [32]: 42.2%; viability, T/C [33]: 45%; viability, T/C [34]: 34.5%; viability, T/C [35]: 22.2%; viability, T/C [36]: 4.67%

**Q.** `O=C(c1cc(Cc2n[nH]c(=O)c3ccccc23)ccc1F)N1CCN(C(=O)C2CC2)CC1` + Cc1cnc(CNC(=O)c2c(=O)c3ccc(N4CCCN(C)CC4)nc3n3c2sc2ccccc23)cn1 was tested. Which pIC50 (second compound 0.0316 µM) did it give?
**A.** < 5.00

**Q.** And the pIC50 (second compound 0.1 µM)?
**A.** 5.30

**Q.** And the pIC50 (second compound 0.316 µM)?
**A.** < 5.00

**Q.** And the pIC50 (second compound 1 µM)?
**A.** > 7.50

**Q.** What about the pIC50 (second compound 3.16 µM) of the same molecule?
**A.** > 7.50

**Q.** What about the pIC50 (second compound 10 µM) of the same molecule?
**A.** > 7.50

**Q.** What about the viability, T/C [1] of the same molecule?
**A.** 99.9%

**Q.** And the viability, T/C [2]?
**A.** 78.8%

**Q.** What about the viability, T/C [3] of the same molecule?
**A.** 83.2%

**Q.** And the viability, T/C [4]?
**A.** 83.6%

**Q.** What about the viability, T/C [5] of the same molecule?
**A.** 60.9%

**Q.** What about the viability, T/C [6] of the same molecule?
**A.** 53%

**Q.** And the viability, T/C [7]?
**A.** 80.7%

**Q.** And the viability, T/C [8]?
**A.** 62.8%

**Q.** What about the viability, T/C [9] of the same molecule?
**A.** 62.7%

**Q.** What about the viability, T/C [10] of the same molecule?
**A.** 60.7%

**Q.** And the viability, T/C [11]?
**A.** 53%

**Q.** And the viability, T/C [12]?
**A.** 45.9%

**Q.** And the viability, T/C [13]?
**A.** 64.6%

**Q.** And the viability, T/C [14]?
**A.** 56.8%

**Q.** And the viability, T/C [15]?
**A.** 64.6%

**Q.** And the viability, T/C [16]?
**A.** 62.9%

**Q.** And the viability, T/C [17]?
**A.** 50.8%

**Q.** And the viability, T/C [18]?
**A.** 48.4%

**Q.** And the viability, T/C [19]?
**A.** 46.3%

**Q.** And the viability, T/C [20]?
**A.** 48.4%

**Q.** What about the viability, T/C [21] of the same molecule?
**A.** 43.5%

**Q.** And the viability, T/C [22]?
**A.** 47.9%

**Q.** And the viability, T/C [23]?
**A.** 50%

**Q.** And the viability, T/C [24]?
**A.** 49%

**Q.** What about the viability, T/C [25] of the same molecule?
**A.** 44.2%

**Q.** And the viability, T/C [26]?
**A.** 39.2%

**Q.** What about the viability, T/C [27] of the same molecule?
**A.** 38.3%

**Q.** And the viability, T/C [28]?
**A.** 38.2%

**Q.** And the viability, T/C [29]?
**A.** 43.5%

**Q.** What about the viability, T/C [30] of the same molecule?
**A.** 38.9%

**Q.** And the viability, T/C [31]?
**A.** 33.1%

**Q.** And the viability, T/C [32]?
**A.** 42.3%

**Q.** What about the viability, T/C [33] of the same molecule?
**A.** 34.7%

**Q.** What about the viability, T/C [34] of the same molecule?
**A.** 43.8%

**Q.** And the viability, T/C [35]?
**A.** 49.5%

**Q.** What about the viability, T/C [36] of the same molecule?
**A.** 38.9%
